Laboratory results taken from PubChem BioAssay AID2060910 (Molecular Pharmacology Branch, DTP, NCI, 2025).

System: 242566-281-R-J2-PDC complex spheroid viability
Assay: Anticancer human tumor 242566-281-R-J2-PDC patient-derived pancreatic carcinoma cell line growth inhibition [RAS]
Details: for IC50: curve of first compound; for viability, T/C: stronger effect = lower value
Method in brief: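 Tumour cells grown as complex spheroids with HUVEC endothelial cells and mesenchymal stem cells, treated with RAS pathway inhibitor combinations. Each agent spans half-log steps from near clinical Cmax, or 10 microM where Cmax is unknown.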
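Note: spheroids exposed to compound for 7 days before readout.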
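Throughout, for viability, T/C: 100% = DMSO vehicle control wells.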

IC50 (second compound 0.000949 µM): 18.1 nM
IC50 (second compound 0.003 µM): 16.9 nM
IC50 (second compound 0.00949 µM): 20.3 nM
IC50 (second compound 0.03 µM): 20 nM
IC50 (second compound 0.0949 µM): 18.8 nM
IC50 (second compound 0.3 µM): 11 nM
Compound: CCc1c2c(nc3ccc(O)cc13)-c1cc3c(c(=O)n1C2)COC(=O)[C@]3(O)CC + CCn1c(-c2cccnc2C(C)OC)c2c3cc(ccc31)N1CCOC(CC(NC(=O)C(C(C)C)N(C)C(=O)C3(F)CCN(C(=O)C#CC(C)(C)N(C)C)CC3)C(=O)N3CCCC(N3)C(=O)OCC(C)(C)C2)C1
viability, T/C (second compound 0.000949 µM, first compound 0.000949 µM): 101%
viability, T/C (second compound 0.000949 µM, first compound 0.003 µM): 92.3%
viability, T/C (second compound 0.000949 µM, first compound 0.00949 µM): 59.5%
viability, T/C (second compound 0.000949 µM, first compound 0.03 µM): 39.7%
viability, T/C (second compound 0.000949 µM, first compound 0.0949 µM): 25.5%
viability, T/C (second compound 0.000949 µM, first compound 0.3 µM): 11.6%
viability, T/C (second compound 0.003 µM, first compound 0.000949 µM): 106%
viability, T/C (second compound 0.003 µM, first compound 0.003 µM): 79.5%
viability, T/C (second compound 0.003 µM, first compound 0.00949 µM): 63.7%
viability, T/C (second compound 0.003 µM, first compound 0.03 µM): 37.4%
viability, T/C (second compound 0.003 µM, first compound 0.0949 µM): 24.7%
viability, T/C (second compound 0.003 µM, first compound 0.3 µM): 10.6%
viability, T/C (second compound 0.00949 µM, first compound 0.000949 µM): 105%
viability, T/C (second compound 0.00949 µM, first compound 0.003 µM): 76.1%
viability, T/C (second compound 0.00949 µM, first compound 0.00949 µM): 68.5%
viability, T/C (second compound 0.00949 µM, first compound 0.03 µM): 45%
viability, T/C (second compound 0.00949 µM, first compound 0.0949 µM): 20.7%
viability, T/C (second compound 0.00949 µM, first compound 0.3 µM): 11.8%
viability, T/C (second compound 0.03 µM, first compound 0.000949 µM): 100%
viability, T/C (second compound 0.03 µM, first compound 0.003 µM): 79.5%
viability, T/C (second compound 0.03 µM, first compound 0.00949 µM): 73.9%
viability, T/C (second compound 0.03 µM, first compound 0.03 µM): 38.3%
viability, T/C (second compound 0.03 µM, first compound 0.0949 µM): 17.6%
viability, T/C (second compound 0.03 µM, first compound 0.3 µM): 11.6%
viability, T/C (second compound 0.0949 µM, first compound 0.000949 µM): 84.5%
viability, T/C (second compound 0.0949 µM, first compound 0.003 µM): 77.8%
viability, T/C (second compound 0.0949 µM, first compound 0.00949 µM): 68%
viability, T/C (second compound 0.0949 µM, first compound 0.03 µM): 38.5%
viability, T/C (second compound 0.0949 µM, first compound 0.0949 µM): 14.4%
viability, T/C (second compound 0.0949 µM, first compound 0.3 µM): 10.3%
viability, T/C (second compound 0.3 µM, first compound 0.000949 µM): 84.4%
viability, T/C (second compound 0.3 µM, first compound 0.003 µM): 70.1%
viability, T/C (second compound 0.3 µM, first compound 0.00949 µM): 56.5%
viability, T/C (second compound 0.3 µM, first compound 0.03 µM): 25.4%
viability, T/C (second compound 0.3 µM, first compound 0.0949 µM): 12.4%
viability, T/C (second compound 0.3 µM, first compound 0.3 µM): 7.96%
